According to patent publication US20230121689A1, “CEPHALOSPORIN ANTIBACTERIAL COMPOUND AND PHARMACEUTICAL APPLICATION THEREOF” (priority 2020, published 2023):
≈ marks a conversion by molar mass, not a printed value. Like-named read-outs stand apart in the source and are kept apart here.

Assays:
Format in all cases: cell-based
[1] = tested on: Carbapenem-resistant Pseudomonas aeruginosa (CRPA, Pseudomonas aeruginosa); test: Test Example 2: antibacterial activity test (MIC); conditions: ID-CAMHB, read-out: ID-CAMHB, MIC
Method: (§1) 1. The test compounds were dissolved in sterile normal saline, vortexed for uniformly mixing, and diluted in a 2-fold dilution with the sterile normal saline (11 concentration points in total). The test concentration range was 32-0.031 μg/mL, and two duplicate wells were set for each concentration. Additional wells without drug dosing were set as growth controls. 2. 4 μL of the diluent was added to 196 μL of the bacterial suspension in a 96-well plate (the bacterial count in the bacterial suspension was 2-8×10^5 colony forming units/mL). 3.
(§2) The minimum inhibitory concentration (MIC) assay was performed with reference to the Clinical and Laboratory Standards Institute (CLSI) guidelines.

[2] = tested on: Control Strain Pseudomonas aeruginosa ATCC 27853; test: Test Example 2: antibacterial activity test (MIC); conditions: ATCC27853, ID-CAMHB, ATCC 27853, read-out: ID-CAMHB, MIC
Method: as §1, §2

[3] = tested on: Control strain Escherichia coli ATCC 25922; test: Test Example 2: antibacterial activity test (MIC); conditions: ATCC25922, ID-CAMHB, ATCC 25922, read-out: ID-CAMHB, MIC
Method: as §1, §2

[4] = tested on: Carbapenem-resistant Enterobacteriaceae (CRE, Klebsiella pneumoniae); test: Test Example 2: antibacterial activity test (MIC); conditions: ID-CAMHB, read-out: ID-CAMHB, MIC
Method: as §1, §2

[5] = tested on: Carbapenem-resistant Acinetobacter baumannii (CRAB, Acinetobacter baumannii); test: Test Example 2: antibacterial activity test (MIC); conditions: ID-CAMHB, read-out: ID-CAMHB, MIC
Method: as §1, §2

[6] = tested on: Carbapenem-resistant Enterobacteriaceae (CRE); test: Test Example 1: antibacterial activity test (MIC)
Method: (§3) The test compounds were diluted in a gradient and used for an MIC assay on the test strains. The test compounds at an initial assay concentration of 32 μg/mL were diluted in a 2-fold gradient (11 concentration points in total), and two duplicate wells were set for each concentration. Additional wells without drug dosing were set as growth controls. The minimum inhibitory concentration (MIC) assay was performed with reference to the Clinical and Laboratory Standards Institute (CLSI) guidelines.
(§4) After the frozen strains were subcultured, a single colony was picked and re-suspended in normal saline or sterile water in a tube. The bacterial suspension was vortexed and adjusted to 0.5 McF using a spectrophotometer at the wavelength of 530 nm. The bacterial solution was taken by a pipette, added to a culture medium, diluted and mixed well, and seeded to a bacterial assay plate.
(§5) The 96-well plate was affixed with a disposable sealing film, shaken and mixed well, and visually observed using a plate reader. The minimum concentration of the compounds capable of inhibiting the growth of bacteria was defined as MIC as compared to the growth controls.

[7] = tested on: Carbapenem-resistant Pseudomonas aeruginosa (CRPA); test: Test Example 1: antibacterial activity test (MIC)
Method: as §3, §4, §5

[8] = tested on: Carbapenem-resistant Acinetobacter baumannii (CRAB); test: Test Example 1: antibacterial activity test (MIC)
Method: as §3, §4, §5

For `CC(C)(O/N=C(\C(=O)N[C@@H]1C(=O)N2C(C(=O)[O-])=C(C[N+]3(CC4(NC(=O)c5ccc(O)c(O)c5Cl)CC4)CCCC3)CS[C@H]12)c1csc(N)n1)C(=O)O` [Compound 2], the MIC ([1]; FDA-CDC AR-BANK #0439 (aac(6′)-Il, aadA1b, BCR1, IMP-18, OXA-50)) was 0.5 µg/mL (≈ 0.642 µM), the MIC ([1]; FDA-CDC AR-BANK #0441 (KPC-2)) was 2 µg/mL (≈ 2.57 µM) and the MIC ([1]; FDA-CDC AR-BANK #0444 (aac(6′)-Il, dfrB5, OXA-4, tet(G), VIM-2)) was 4 µg/mL (≈ 5.14 µM). The MIC ([1]; FDA-CDC AR-BANK #0457 (aadA6, VIM-2)) was 0.125 µg/mL (≈ 0.161 µM), the MIC [2] was 0.0625 µg/mL (≈ 0.0803 µM) and the MIC [3] was 0.125 µg/mL (≈ 0.161 µM). It also gave an MIC ([4]; FDA-CDC AR-BANK #0361 (TEM-1; SHV-12; KPC-2)) of 1 µg/mL (≈ 1.28 µM), an MIC ([4]; FDA-CDC AR-BANK #0362 (TEM-1; SHV-11; KPC-2)) of 0.5 µg/mL (≈ 0.642 µM) and an MIC ([4]; FDA-CDC AR-BANK #0363 (TEM-1; SHV-12; KPC-2)) of 0.5 µg/mL (≈ 0.642 µM). The MIC ([4]; FDA-CDC AR-BANK #0438 (aph(3′)-Ia, dfrA12, KPC-3, OmpK35, oqxA, oqxB, SHV-11)) was 1 µg/mL (≈ 1.28 µM), the MIC ([4]; FDA-CDC AR-BANK #0453 (KPC-3, OmpK35, oqxA, oqxB, SHV-11, TEM-1B)) was 2 µg/mL (≈ 2.57 µM) and the MIC ([5]; FDA-CDC AR-BANK #0036 (strB, OXA-65, OXA-24, strA, sul2)) was 0.5 µg/mL (≈ 0.642 µM). For the same molecule, the MIC ([5]; FDA-CDC AR-BANK #0052 (OXA-58, OXA-100, sul2)) was 0.0625 µg/mL (≈ 0.0803 µM), the MIC ([5]; FDA-CDC AR-BANK #0063 (OXA-23, OXA-65, OXA-24, sul2)) was 16 µg/mL (≈ 20.6 µM) and the MIC ([5]; FDA-CDC AR-BANK #0070 (OXA-58, OXA-100, sul2)) was 0.0625 µg/mL (≈ 0.0803 µM). The MIC ([5]; FDA-CDC AR-BANK #0101 (strB, OXA-65, OXA-24, strA, sul2)) was 0.5 µg/mL (≈ 0.642 µM), the MIC ([6]; CRE strain No. 100109) was 1 µg/mL (≈ 1.28 µM) and the MIC ([6]; CRE strain No. 100186) was 1.5 µg/mL (≈ 1.93 µM). For the same molecule, the MIC ([6]; CRE strain No. 110502) was 6 µg/mL (≈ 7.71 µM), the MIC ([6]; CRE strain No. 110525) was 2 µg/mL (≈ 2.57 µM) and the MIC ([6]; CRE strain No. 311277) was 1.5 µg/mL (≈ 1.93 µM). The MIC ([7]; CRPA strain No. 100110) was 0.031 µg/mL (≈ 0.0398 µM), the MIC ([7]; CRPA strain No. 110163) was 0.5 µg/mL (≈ 0.642 µM) and the MIC ([7]; CRPA strain No. 110224) was 0.75 µg/mL (≈ 0.964 µM). It also gave an MIC ([7]; CRPA strain No. 110358) of 1 µg/mL (≈ 1.28 µM), an MIC ([7]; CRPA strain No. 110390) of 0.5 µg/mL (≈ 0.642 µM) and an MIC ([8]; CRAB strain No. 100085) of 0.5 µg/mL (≈ 0.642 µM). For the same molecule, the MIC ([8]; CRAB strain No. 100333) was 2 µg/mL (≈ 2.57 µM), the MIC ([8]; CRAB strain No. 110440) was 3 µg/mL (≈ 3.85 µM) and the MIC ([8]; CRAB strain No. 110477) was 2 µg/mL (≈ 2.57 µM). It also gave an MIC ([8]; CRAB strain No. 110517) of 0.5 µg/mL (≈ 0.642 µM).
